Measured values: patent US9328137B2, “Hydrogel-forming material” (NISSAN CHEMICAL INDUSTRIES, LTD., priority 2011, dated 2016)
Residues, ends and D or L forms follow the SMILES beside them. *: point of attachment. Palmitoyl = CCCCCCCCCCCCCCCC(=O)*

How the values were obtained:
[1] = Evaluation of solubility of N-palmitoyl-Gly-His with each additive (heating and stirring at 80° C., open system, visual inspection); format: physicochemical; conditions: 0.05% or greater acetic acid, sodium acetate or phosphoric acid, 0.1% disodium hydrogen phosphate or trisodium citrate, 0.5% citric, succinic, tartaric, lactic acid or their sodium salts, 1.0% trimellitic acid or trisodium trimellitate
Method: Next, heating and stirring were performed, with a cap of the screw bottle being open (that is, an open system), in a water bath (NWB-180N, manufactured by Nissinrika K. K.) for 60 minutes at a maximum until a transparent dispersion state was confirmed at 80° C. […] Next, heating and stirring were performed, with a cap of the screw bottle being open, in a water bath (NWB-180N, manufactured by Nissinrika K. K.) for 60 minutes at 80° C.
Next, heating and stirring were performed, with a cap of the screw bottle being open, in a water bath (NWB-180N, manufactured by Nissinrika K. K.) for 60 minutes at a maximum until a transparent dispersion state was confirmed at 80° C.

[2] = Evaluation of hydrogelation ability (overnight cooling at room temperature, inversion of the bottle); format: physicochemical; conditions: same additive amounts as; after stirring at 80° C. in an open system
Text: Next, the solution was allowed to cool at room temperature overnight.

dissolution in water (summary of Examples 1 to 14, in words) [1]: could be easily dissolved in water
hydrogel formation (summary of Examples 1 to 14, in words) [2]: a hydrogel could be obtained
SMILES: CCCCCCCCCCCCCCCC(=O)NCC(=O)N[C@@H](Cc1c[nH]cn1)C(=O)O [N-palmitoyl-Gly-His] (Palmitoyl-Gly-His-OH)
